# According to patent US12228580B2, “Methods of assigning a COVID pathological type based on a cytokine/chemokine panel” (IncellDx, Inc., priority 2020, dated 2025):
# Assays:
# [1] = test system: Long Hauler patients suffering from chronic COVID-19; assay: Treatment of Long Hauler patients for chronic COVID-19: symptoms; type: in vivo, human; details: 300 mg twice a day for 2 weeks
# Procedure: (§1) Long Hauler patients suffering from chronic COVID-19 were treated for 2 weeks with 300 mg of Maraviroc (SELZENTRY®) twice a day. […] The results are provided below, which provide patient profiles and LHI (long haul index) as determined using the panel described in the preceding example. LHI is also referred to as “Long Hauler Score” or S1, where S1=(IFN-gamma+IL-2)/CCL4-MIP-1β.
# [2] = test system: plasma cytokines/chemokines of Chronic COVID patients; assay: 14-plex cytokine/chemokine panel in plasma and long hauler index (S1) of treated Chronic COVID patients; type: in vivo, human; details: 300 mg twice a day for 2 weeks; for S1 (long haul index, LHI; (IFN-gamma+IL-2)/CCL4-MIP-1β): Normals 0.1
# Description: Fresh plasma was used for cytokine quantification using a customized 14-plex bead based flow cytometric assay (IncelIKINE, IncellDx, Inc) on a CytoFlex flow cytometer as previously described using the following analytes: ‘TNF-α’, ‘IL-4’, ‘IL-13’, ‘IL-2’, ‘GM-CSF’, ‘sCD40L’, ‘CCL5 (RANTES)’, ‘CCL3 (MIP-1α)’, ‘IL-6’, ‘IL-10’, ‘IFN-γ’, ‘VEGF’, ‘IL-8’, and ‘CCL4 (MIP-1β) (Patterson et al., “CCR5 inhibition in Critical COVID-19 Patients Decreases Inflammatory Cytokines, Increases CD8 T-Cells, and Decreases SARS-CoV2 RNA in Plasma by Day 14”, Int J Infect Dis (2020) doi: 10.1016/j.ijid.2020.10.101). For each patient sample, 25 μL of plasma was used in each well of a 96-well plate. Standard curves with serial 6-point dilutions of antigen were run on each plate for each cytokine. Raw data was analyzed using LegendPlex software (Biolegend, Inc San Diego Calif.). Samples were run in duplicate.
# as §1
substance,measurement,setting,value
Maraviroc,symptoms in long haulers,[1],alleviated or completely resolved symptoms
same,CCL5/RANTES in Chronic COVID patients successfully treated,[2]; Chronic COVID patients,Decreased CCL5/RANTES in Chronic COVID patients successfully treated
same,"long hauler Indices (LHI, S1)",[2]; Long Hauler patients,reduced
same,"S1 (long haul index, LHI; (IFN-gamma+IL-2)/CCL4-MIP-1β)","[2]; patient two, second sample (AB2), first sample AB1 4.0",0.3
same,GM-CSF,"[2]; patient two, second sample (AB2), first sample AB1 6.02",15.09 pg/mL
same,TNF-α,"[2]; patient two, second sample (AB2), first sample AB1 7.75",17.13 pg/mL
same,IL-10,"[2]; patient two, second sample (AB2), first sample AB1 7.90",<0.61 pg/mL
same,IL-6,"[2]; patient two, second sample (AB2), first sample AB1 10.88",<0.6 pg/mL
same,IL-4,"[2]; patient two, second sample (AB2), first sample AB1 11.06",4.12 pg/mL
same,IL-2,"[2]; patient two, second sample (AB2), first sample AB1 12.57",2.15 pg/mL
same,CCL4 (MIP-1β),"[2]; patient two, second sample (AB2), first sample AB1 15.52",8.43 pg/mL
same,IFN-γ,"[2]; patient two, second sample (AB2), first sample AB1 48.78",<0.92 pg/mL
same,VEGF,"[2]; patient two, second sample (AB2), first sample AB1 60.41",22.98 pg/mL
same,CCL3 (MIP-1α),"[2]; patient two, second sample (AB2), first sample AB1 87.65",<1.22 pg/mL
same,CCL5 (RANTES),"[2]; patient two, second sample (AB2), first sample AB1 13082.39",12261.36 pg/mL
same,sCD40L,"[2]; patient two, second sample (AB2), first sample AB1 13488.",12631. pg/ml
same,IL-13,"[2]; patient two, second sample (AB2), first sample AB1 <3.07",4.35 pg/mL
same,IL-8,"[2]; patient two, second sample (AB2), first sample AB1 <15.74",18.37 pg/mL
same,CCL4 (MIP-1β),"[2]; unlabelled patient, second line, first line 3.62",9.79 pg/mL
same,IL-13,"[2]; unlabelled patient, second line, first line 5.56",4.22 pg/mL
same,GM-CSF,"[2]; unlabelled patient, second line, first line 10.40",9.07 pg/mL
same,"S1 (long haul index, LHI; (IFN-gamma+IL-2)/CCL4-MIP-1β)","[2]; unlabelled patient, second line, first line 11.4",1.3
same,TNF-α,"[2]; unlabelled patient, second line, first line 17.86",17.50 pg/mL
same,IL-2,"[2]; unlabelled patient, second line, first line 33.94",4.89 pg/mL
same,VEGF,"[2]; unlabelled patient, second line, first line 39.00",31.62 pg/mL
same,sCD40L,"[2]; unlabelled patient, second line, first line 8980.",41374. pg/ml
same,CCL5 (RANTES),"[2]; unlabelled patient, second line, first line 14334.86",10011.91 pg/mL
same,IL-10,"[2]; unlabelled patient, second line, first line <1.20",<2.49 pg/mL
same,IL-8,"[2]; unlabelled patient, second line, first line <3.82",<9.98 pg/mL
same,IL-6,"[2]; unlabelled patient, second line, first line <4.66",<3.60 pg/mL
same,IL-4,"[2]; unlabelled patient, second line, first line <5.02",<1.22 pg/mL
same,IFN-γ,"[2]; unlabelled patient, second line, first line <7.30",<7.77 pg/mL
same,CCL3 (MIP-1α),"[2]; unlabelled patient, second line, first line <34.82",<45.08 pg/mL
